Measured values taken from patent publication US20050089473A1, “Potassium channel mediated delivery of agents through the blood-brain barrier” (Cedars-Sinai Medical Center, priority 2003, published 2005).
Structures can show the parent of a compound that is named as a salt.

Assay: Physiological measurements during BTB permeability determination
Format: in vivo, rat
Method: All animal experiments were conducted in accordance with policies set by the Institutional Animal Care and Usage Committee and NIH guidelines. A rat syngeneic tumor model was prepared using female Wistar rats and a human-tumor xenograft model in athymic nude rats weighing 180-200 g were prepared for the BBB/BTB permeability studies. Although brain tumor blood vessel development is rapid in rats compared to humans, this variable should not affect the findings or conclusions because the study analyzes the response of blood vessels, regardless of how rapidly they developed, to vasomodulators. The optimum number of tumor cells and incubation period for in vivo tumor growth was determined in separate experiments. Rat glioma (RG2) cells (1×10^5) in 5 μl of medium with 1.2% methylcellulose were injected into the basal ganglia of Wistar rats, while nude rats were injected with glioblastoma multiforme (GBM) primary cells (5×10^5). The coordinates were 5-mm lateral to the bregma and 4.5 mm deep to the basal ganglia. Seven days (for RG2 tumor) and 3-4 weeks (for GBM) after tumor implantation, the rats were prepared for permeability study as described by (Ningarsj, N. S., Rao, M., Hashizume, K., Asotra, K., and Black, K. L. Regulation of blood-brain tumor barrier permeability by calcium-activated potassium channels J. Pharmacol. Exp. Ther., 301:838-851, 2002; Ningaraj, N. S., Rao, M., and Black, K. L. Calcium-dependent potassium channels as a target protein ir. the modulation of blood-brain humor barrier. Drug News and Perspectives, 16:1-8, 2003). In regional permeability studies, 5 min after the start of the intracarotid (i.c.) infusion, 100 μCi/kg of [^14C] AIB, [^14C] dextran or [^14C] carboplatin to 1 ml phosphate buffer saline (PBS) was injected as an intravenous (i.v.) bolus within a 15 second period. To determine whether the infusion of vasomodulators would affect cerebral blood flow (CBF) at the tumor area, Cerebral Laser-Doppler Flowmetry (LDF) using a Laser-Doppler (DRT4, Moore Instruments Ltd., England) equipped with a DP3 optical (1 mm diameter) probe during 15 min i.c. infusion of vasomodulators in some rats (n=3/group) was used as described in Ningarsj, N. S., Rao, M., Hashizume, K., Asotra, K., and Black, K. L. Regulation of blood-brain tumor barrier permeability by calcium-activated potassium channels J. Pharmacol. Exp. Ther., 301:838-851, 2002; and Ningaraj, N. S., Rao, M., and Black, K. L. Calcium-dependent potassium channels as a target protein ir. the modulation of blood-brain humor barrier. Drug News and Perspectives, 16:1-8, 2003. Rats with abnormal CBF, blood gases or blood pressure were excluded from the study.
The physiological parameters were determined either before or during vasomodulator infusion. The values are mean±SD of n>4 rats, except for cerebral blood flowmetry (CBF) where three representative rats per group were used. pH is arterial pH; PaO2 is arterial oxygen; PaCO2 is arterial carbon dioxide; and MAP is mean arterial blood pressure.

[1] = before or during vasomodulator infusion, mean±SD

Question: Which results are given for Nc1cc(N2CCCCC2)nc(N)[n+]1OS(=O)(=O)[O-] [MS, minoxidil sulfate]?
Answer: PaCO2 [1]: 45 ± 1 mm Hg; PaO2 [1]: 90 ± 5 mm Hg; pH (arterial pH) [1]: 7.38 ± 0.01; Effect on CBF (i.c. 30 μg/kg/min, laser Doppler): not to significantly affect CBF; CBF (% change vs. vehicle) (laser-Doppler flowmetry, three rats per group): 8 ± 3 % change vs. vehicle
